Source: publication PMC5116675, “The lectin-like protein 1 in Lactobacillus rhamnosus GR-1 mediates tissue-specific adherence to vaginal epithelium and inhibits urogenital pathogens” (Scientific Reports, 2016)

Experiments:
[1] = target: T1, lectin domain of LGR1_Llp1 (lectin-like protein 1) (Lacticaseibacillus rhamnosus, UniProt T1SH75); experiment: mammalian glycan array v5.[…] (CFG), FITC-labelled lectin domain; assay type: binding; conditions: glycan immobilised on NHS-activated glass slide through amino linker
T1 construct: gene E6L36_12050; N-terminal L-type lectin domain (PF00139, ca. 250 residues) with 22 amino acids extension, N-His6 tag (pET28a, pCMPG10775), from E. coli BL21(DE3); full protein 680 residues; FITC-labelled for glycan array
T1 sequence (T1SH75 31-352 limits assumed): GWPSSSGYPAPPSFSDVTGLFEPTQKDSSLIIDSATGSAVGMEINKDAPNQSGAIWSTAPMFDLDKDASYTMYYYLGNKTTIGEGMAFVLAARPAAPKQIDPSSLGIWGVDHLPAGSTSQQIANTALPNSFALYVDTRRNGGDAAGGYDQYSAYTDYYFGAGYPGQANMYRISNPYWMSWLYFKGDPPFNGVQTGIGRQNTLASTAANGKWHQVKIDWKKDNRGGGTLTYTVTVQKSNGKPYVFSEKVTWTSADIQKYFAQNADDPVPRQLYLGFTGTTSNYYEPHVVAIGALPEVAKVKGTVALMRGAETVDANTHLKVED

[2] = target: T1, lectin domain of LGR1_Llp1 (lectin-like protein 1); experiment: pull-down with sugar-coated Sepharose 6B beads, SDS-PAGE; assay type: binding; conditions: sugar immobilised on beads; 25 mM MES, 25 mM NaCl, 1% polyvinylalcohol, 4 °C, 2 h; 100 μg/ml lectin domain

Row | Structure (SMILES) | mammalian glycan array v5.2 (CFG), FITC-labelled lectin domain [1] | pull-down with sugar-coated Sepharose 6B beads, SDS-PAGE [2]
1 | CC(=O)N[C@H]1[C@H](O[C@@H]2[C@H](O[C@]3(C(=O)O)C[C@H](O)[C@@H](NC(C)=O)[C@H]([C@H](O)[C@@H](CO)O[C@]4(C(=O)O)C[C@H](O)[C@@H](NC(C)=O)[C@H]([C@H](O)[C@H](O)CO)O4)O3)[C@@H](O)[C@H](O[C@H]3[C@H](O)[C@@H](O)[C@H](OCCN)O[C@@H]3CO)O[C@@H]2CO)O[C@H](CO)[C@H](O)[C@@H]1O[C@@H]1O[C@H](CO)[C@H](O)[C@H](O[C@]2(C(=O)O)C[C@H](O)[C@@H](NC(C)=O)[C@H]([C@H](O)[C@@H](CO)O[C@]3(C(=O)O)C[C@H](O)[C@@H](NC(C)=O)[C@H]([C@H](O)[C@H](O)CO)O3)O2)[C@H]1O [Neu5Acα2-8Neu5Acα2-3Galβ1-3GalNAcβ1-4(Neu5Acα2-8Neu5Acα2-3)Galβ1-4Glcβ-Sp0] | LGR1_Llp1 showed also a capacity to bind to the glycosphingolipid GQ1 receptor | 
2 | OC[C@H]1OC(O)[C@@H](O)[C@@H](O)[C@@H]1O (stereo partly drawn) [D-mannose] |  | The purified lectin domain of Llp1 showed the highest binding to mannan and mannose
